B1: CAP37: cationic antimicrobial protein of Mr 37 kDa; recombinant CAP37 produced in human embryonic kidney (HEK) 293 cells (protein)
chain: IVGGRKARPRQFPFLASIQNQGRHFCGGALIHARFVMTAASCFQSQNPGVSTVVLGAYDLRRRERQSRQTFSISSMSENGYDPQQNLNDLMLLQLDREANLTSSVTILPLPLQNATVEAGTRCQVAGWGSQRSGGRLSRFPRFVNVTVTPEDQCRPNNVCTGVLTRRGGICNGDGGTPLVCEGLAHGVASFSLGPCGRGPDFFTRVALFRDWIDGVLNNPGP

Tests used:
[1] = tested on: cytokines in corneal lysates; assay: Corneal cytokines after intrastromal injection (MILLIPLEX MAP mouse cytokine assay); assay type: in vivo; details: intrastromal 0.5 μl, 10^−4, 10^−5, 10^−6 M; 24 and 48 hours
Protocol: Corneas were injected intrastromally with 0.5 μl of peptide 95-122 at a final concentration of 10^−4 M, 10^−5 M, and 10^−6 M and vehicle (saline) control. Corneas were collected and flash frozen at 24 hours and 48 hours. Corneal lysates were analyzed for cytokines using the MILLIPLEX® MAP mouse cytokine assay for IL-7(A), IL-15 (B), IFN-γ (C), MIP1-α (D) (EMD Millipore Corp., Billerica, Mass.). The means of independent experimental values are shown±SEM. ***P<0.001, **P<0.01, *P<0.05 by unpaired t-test as compared to vehicle treated controls. […] Corneas were injected intrastromally with 0.5 μl of peptide 95-122 at a final concentration of 10^−4 M, 10^−5 M, and 10^−6 M and vehicle (saline) control. Corneas were collected and flash frozen at 24 hours and 48 hours. Corneal lysates were analyzed for cytokines using the MILLIPLEX® MAP mouse cytokine assay for MIP1-β (EMD Millipore Corp., Billerica, Mass.). **P<0.01, *P<0.05 by unpaired t-test as compared to vehicle treated controls. […] Corneas were injected intrastromally with 0.5 μl of peptide 95-122 at a final concentration of 10^−4 M, 10^−5 M, and 10^−6 M and vehicle (saline) control. Corneas were collected and flash frozen at 24 hours and 48 hours. Corneal lysates were analyzed for cytokines using the MILLIPLEX® MAP mouse cytokine assay for KC (A), IL-1β (B), and GM-CSF (C) (EMD Millipore Corp., Billerica, Mass.). **P<0.01, *P<0.05 by unpaired t-test as compared to vehicle treated controls.

PKCδ [2] = assay: Immunofluorescence for PKCδ in HCEC monolayers; assay type: cell-based, human; details: CAP37 250 and 500 ng/ml; 15 minutes; scratched and non-scratched monolayers
Protocol: HCEC monolayers were grown to confluency and were scratched with a 10 μl pipette tip or left unscratched, and then the monolayers were treated for 15 minutes with (A-B) buffer, (C-D) PMA (1 μM), (E-F) 250 ng/ml CAP37, and (G-J) 500 ng/ml CAP37. Cells were stained for PKCδ (250 ng/ml; (A-H)), and PKCα (1 μg/ml; (I-J)) and detected using immunofluorescence (4 μg/ml, ALEXA FLUOR® 488 dye (Life Technologies Corp., Grand Island, N.Y.)). […] Scratched monolayers that were treated for 18 hours with CAP37 (250 ng/ml; (L)) or left untreated (K) were stained for PKCδ. […] Scale bars, 20 μm.
Immunofluorescence: HCECs and primary HCECs were cultured on Lab-Tek® II glass chamber slides (Nunc, Rochester, N.Y.) and starved overnight in basal media. For wounding studies, monolayers were scratched with a 10 μl pipette tip or left unscratched and treated with 1 μM phorbol 12-myristate 13-acetate (PMA, Sigma-Aldrich), rCAP37 (25-500 ng/ml), or basal KSFM (Gibco) for 15 minutes. After treatment, the cells were fixed in 4% (v/v) formaldehyde solution (Thermo, Rockford, Ill.) in PBS (Gibco) for 20 minutes at room temperature followed by permeabilization in 0.5% TRITON™-X 100 (Mallinckrodt, St. Louis, Mo.) in PBS for 10 minutes. Remaining formaldehyde was quenched with 0.05 M ammonium chloride (NH4Cl, Sigma-Aldrich, St. Louis, Mo.) in PBS for 10 minutes. […]

PKCδ [3] = assay: Immunohistochemistry for PKCδ in corneal wounds in vivo; parameters: species or system mouse; details: rCAP37 250 ng/ml; sections at 6 hours
Protocol: Mice corneas were wounded using the AlgerBrush II and treated at 0 and 16 hours with vehicle (normal saline; (A-C)) or rCAP37 (250 ng/ml; (D-F)). Whole eye globes were enucleated at 6 hours (A, B, D, E), 16 hours (C, F), and 48 hours (H) post-wounding, and sections were stained for PKCδ. Representative images show constitutive staining for PKCδ in unwounded corneas (G). […] Pronounced staining for PKCδ was seen along the leading wound edge (↓) in CAP37-treated corneas at 6 hours (D, E) and 16 hours (F). […] Scale bars, 100 μm.
Immunohistochemistry: Whole mouse eyes were collected, fixed, embedded, and cut as previously described. Antigen retrieval was performed by treating sections with Rodent Decloaker (BioCare Medical, Concord, Calif.) and steaming them for 20 minutes before cooling with deionized water for 20 minutes. Sections were blocked for 30 minutes in Rodent Blocker M (BioCare Medical, Concord, Calif.), washed three times for 5 minutes per wash in deionized water, and blocked in peroxide block (Cell Marque, Rocklin, Calif.) for 10 minutes. Sections were then washed three times for 5 minutes in deionized water and incubated overnight at 4° C. with rabbit anti-PKCδ (4 μg/ml; Santa Cruz Biotechnology, Inc. Santa Cruz, Calif.). Sections incubated with rabbit IgG (Cell Signaling Technology, Danvers, Mass.) overnight at 4° C. served as controls for nonspecific staining. […]

Row | Molecule | GM-CSF in corneal lysates [1] | IFN-γ in corneal lysates [1] | IL-7 in corneal lysates [1] | IL-10 in corneal lysates [1] | IL-15 in corneal lysates [1] | KC in corneal lysates [1] | MIP1-α in corneal lysates [1] | MIP1-β in corneal lysates [1] | PKCδ staining, in words (PKCδ [2]) | PKCδ staining of corneal sections, in words (PKCδ [3])
1 | LDREANLTSSVTILPLPLQNATVEAGTR (listed as Homo sapiens) [Peptide 95-122] | significantly increases | significantly increases | significantly increases | significantly increases | significantly increases | significantly increases | significantly increases | significantly increases |  | 
2 | B1 |  |  |  |  |  |  |  |  | dose-dependent increase in PKCδ staining | strong staining for PKCδ

From patent US11884710B2, “Peptide compounds and methods of use in wound healing” (priority 2013, dated 2024)
